Laboratory results as given in patent publication US11541107B2, “Peptides and T cells for use in immunotherapeutic treatment of various cancers” (Immatics Biotechnologies GmbH, priority 2015, dated 2023).

Key:
CD8+ T cells = experiment: In vitro T-cell priming assay (aAPCs loaded with peptide/MHC and anti-CD28, pMHC multimer readout; HLA-A*02 and HLA-A*24); assay type: cell-based, human; conditions: in vitro immunogenicity of HLA class I peptides; peptide-specific T cells by pMHC multimer staining
Excerpt: In order to obtain information regarding the immunogenicity of the TUMAPs of the present invention, the inventors performed investigations using an in vitro T-cell priming assay based on repeated stimulations of CD8+ T cells with artificial antigen presenting cells (aAPCs) loaded with peptide/MHC complexes and anti-CD28 antibody.
In order to perform in vitro stimulations by artificial antigen presenting cells loaded with peptide-MHC complex (pMHC) and anti-CD28 antibody, the inventors first isolated CD8+ T cells from fresh HLA-A*02 leukapheresis products via positive selection using CD8 microbeads (Miltenyi Biotec, Bergisch-Gladbach, Germany) of healthy donors obtained from the University clinics Mannheim, Germany, after informed consent.
PBMCs and isolated CD8+ lymphocytes were incubated in T-cell medium (TCM) until use consisting of RPMI-Glutamax (Invitrogen, Karlsruhe, Germany) supplemented with 10% heat inactivated human AB serum (PAN-Biotech, Aidenbach, Germany), 100 U/ml Penicillin/100 μg/ml Streptomycin (Cambrex, Cologne, Germany), 1 mM sodium pyruvate (CC Pro, Oberdorla, Germany), 20 μg/ml Gentamycin (Cambrex). 2.5 ng/ml IL-7 (PromoCell, Heidelberg, Germany) and 10 U/ml IL-2 (Novartis Pharma, Nürnberg, Germany) were also added to the TCM at this step.
Generation of pMHC/anti-CD28 coated beads, T-cell stimulations and readout was performed in a highly defined in vitro system using four different pMHC molecules per stimulation condition and 8 different pMHC molecules per readout condition.
The purified co-stimulatory mouse IgG2a anti human CD28 Ab 9.3 (Jung et al., 1987) was chemically biotinylated using Sulfo-N-hydroxysuccinimidobiotin as recommended by the manufacturer (Perbio, Bonn, Germany). Beads used were 5.6 μm diameter streptavidin coated polystyrene particles (Bangs Laboratories, Illinois, USA).
pMHC used for positive and negative control stimulations were A*0201/MLA-001 (peptide […] (SEQ ID NO. 418) from modified Melan-A/MART-1) and A*0201/DDX5-001 ([…] from DDX5, SEQ ID NO. 419), respectively.
800.000 beads/200 μl were coated in 96-well plates in the presence of 4×12.5 ng different biotin-pMHC, washed and 600 ng biotin anti-CD28 were added subsequently in a volume of 200 μl. Stimulations were initiated in 96-well plates by co-incubating 1×10^6 CD8+ T cells with 2×10^5 washed coated beads in 200 μl TCM supplemented with 5 ng/ml IL-12 (PromoCell) for 3 days at 37° C. Half of the medium was then exchanged by fresh TCM supplemented with 80 U/ml IL-2 and incubating was continued for 4 days at 37° C. This stimulation cycle was performed for a total of three times. For the pMHC multimer readout using 8 different pMHC molecules per condition, a two-dimensional combinatorial coding approach was used as previously described (Andersen et al., 2012) with minor modifications encompassing coupling to 5 different fluorochromes. Finally, multimeric analyses were performed by staining the cells with Live/dead near IR dye (Invitrogen, Karlsruhe, Germany), CD8-FITC antibody clone SK1 (BD, Heidelberg, Germany) and fluorescent pMHC multimers. For analysis, a BD LSRII SORP cytometer equipped with appropriate lasers and filters was used. Peptide specific cells were calculated as percentage of total CD8+ cells. Evaluation of multimeric analysis was done using the FlowJo software (Tree Star, Oregon, USA). In vitro priming of specific multimer+CD8+ lymphocytes was detected by comparing to negative control stimulations.
Exemplary flow cytometry results after TUMAP-specific multimer staining for 2 peptides of the invention are shown in FIGS. 3A-3B together with corresponding negative controls. Results for 5 peptides from the invention are summarized in Table12A. Exemplary flow cytometry results after TUMAP-specific multimer staining for 7 peptides of the invention are shown in FIGS. 4A-4C and FIGS. 5A-5D together with corresponding negative controls.

HLA-A*24 = experiment: MHC binding assay, UV-ligand exchange with beta2m ELISA, HLA-A*24; parameters: species or system human; conditions: binding to HLA-A*24 ranged by peptide exchange yield (UV-ligand exchange, beta2m ELISA)
In short: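 Peptide–MHC complexes made by UV-ligand exchange of a UV-cleavable peptide. Exchange yield measured by ELISA: monomers diluted 100-fold on streptavidin-coated plates, 1 h at 37°C, detected with HRP anti-β2m (2 ug/ml) and TMB, absorbance at 450 nm.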

Substance | Peptide exchange (HLA-A*24) | Wells positive [%] (CD8+ T cells)
156 (YYMELTKLLL; listed as Homo sapiens) [compound 156] | ++++ (>=75% = ++++) | + (<20% = +)
157 (DYIPASGFALF; listed as Homo sapiens) [compound 157] | +++ (50%-75% = +++) | + (<20% = +)
98 (VFPRLHNVLF; listed as Homo sapiens) [compound 98] | +++ (50%-75% = +++) | + (<20% = +)
354 (VYNEQIRDLL; listed as Homo sapiens) [compound 354] | +++ (50%-75% = +++) | + (<20% = +)
344 (EYNSDLHQF; listed as Homo sapiens) [compound 344] | +++ (50%-75% = +++) | + (<20% = +)
175 (LYSPVPFTL; listed as Homo sapiens) [compound 175] | +++ (50%-75% = +++) | + (<20% = +)
174 (VYEKNGYIYF; listed as Homo sapiens) [compound 174] | +++ (50%-75% = +++) | ++++ (>=70% = ++++)
161 (KYPDIVQQF; listed as Homo sapiens) [compound 161] | +++ (50%-75% = +++) | + (<20% = +)
353 (TYGKIDLGF; listed as Homo sapiens) [compound 353] | +++ (50%-75% = +++) | + (<20% = +)
160 (RYGDGGSSF; listed as Homo sapiens) [compound 160] | +++ (50%-75% = +++) | + (<20% = +)
177 (VYFKAGLDVF; listed as Homo sapiens) [compound 177] | +++ (50%-75% = +++) | + (<20% = +)
190 (LYSELTETL; listed as Homo sapiens) [compound 190] | +++ (50%-75% = +++) | ++++ (>=70% = ++++)
167 (RYGFYYVEF; listed as Homo sapiens) [compound 167] | +++ (50%-75% = +++) | ++++ (>=70% = ++++)
356 (NYMPGQLTI; listed as Homo sapiens) [compound 356] | ++++ (>=75% = ++++) | + (<20% = +)
164 (HYVPATKVF; listed as Homo sapiens) [compound 164] | +++ (50%-75% = +++) | + (<20% = +)
380 (VYTGIDHHW; listed as Homo sapiens) [compound 380] | ++++ (>=75% = ++++) | + (<20% = +)
359 (NYGVLHVTF; listed as Homo sapiens) [compound 359] | ++++ (>=75% = ++++) | + (<20% = +)
363 (SYAELGTTI; listed as Homo sapiens) [compound 363] | ++ (20%-49% = ++) | + (<20% = +)
105 (IYNETITDLL; listed as Homo sapiens) [compound 105] | +++ (50%-75% = +++) | + (<20% = +)
358 (YYSEVPVKL; listed as Homo sapiens) [compound 358] | +++ (50%-75% = +++) | ++++ (>=70% = ++++)
96 (YYTQYSQTI; listed as Homo sapiens) [compound 96] | ++++ (>=75% = ++++) | + (<20% = +)
186 (VFTTSSNIF; listed as Homo sapiens) [compound 186] | ++++ (>=75% = ++++) | + (<20% = +)
162 (KYTSYILAF; listed as Homo sapiens) [compound 162] | ++ (20%-49% = ++) | + (<20% = +)
106 (IYNETVRDLL; listed as Homo sapiens) [compound 106] | +++ (50%-75% = +++) | + (<20% = +)
111 (VYVQILQKL; listed as Homo sapiens) [compound 111] | +++ (50%-75% = +++) | + (<20% = +)

Further lines, with some results ahead:

Peptide exchange (HLA-A*24) | Substance | Wells positive [%] (CD8+ T cells)
+++ (50%-75% = +++) | 181 (VYPPYLNYL; listed as Homo sapiens) [compound 181] | ++++ (>=70% = ++++)
+++ (50%-75% = +++) | 142 (VYVDDIYVI; listed as Homo sapiens) [compound 142] | ++++ (>=70% = ++++)
++++ (>=75% = ++++) | 172 (VFIFKGNEF; listed as Homo sapiens) [compound 172] | + (<20% = +)
++++ (>=75% = ++++) | 365 (VFIDHPVHL; listed as Homo sapiens) [compound 365] | + (<20% = +)
+++ (50%-75% = +++) | 103 (NYIPVKNGKQF; listed as Homo sapiens) [compound 103] | + (<20% = +)
++++ (>=75% = ++++) | 132 (RYPALFPVL; listed as Homo sapiens) [compound 132] | + (<20% = +)
++++ (>=75% = ++++) | 163 (RYLTISNLQF; listed as Homo sapiens) [compound 163] | + (<20% = +)
+++ (50%-75% = +++) | 115 (RYLNKSFVL; listed as Homo sapiens) [compound 115] | + (<20% = +)
++++ (>=75% = ++++) | 166 (FYTLPFHLI; listed as Homo sapiens) [compound 166] | ++++ (>=70% = ++++)
+++ (50%-75% = +++) | 158 (IYEETRGVLKVF; listed as Homo sapiens) [compound 158] | + (<20% = +)
+++ (50%-75% = +++) | 180 (KYLQVVGMF; listed as Homo sapiens) [compound 180] | + (<20% = +)
++++ (>=75% = ++++) | 137 (EYLHNCSYF; listed as Homo sapiens) [compound 137] | + (<20% = +)
++++ (>=75% = ++++) | 104 (SYLTWHQQI; listed as Homo sapiens) [compound 104] | + (<20% = +)
